Measured values as given in ChEMBL document CHEMBL5244246, “Recent advances in chemistry and bioactivity of marine cyanobacteria Moorea species” (Eur J Med Chem, 2020).
Values after ≈ are worked out from the molar mass of the structure shown.

Columns and labels:
Tubulin (Homo sapiens) = Tubulin (Homo sapiens) (UniProt P68371+Q9H4B7+P0DPH7+P68366+Q13509+Q71U36+P04350+Q3ZCM7+P07437+P68363+Q9BQE3+Q6PEY2+Q13885+Q9BVA1+Q9BUF5); assay: Inhibition of colchicine binding to tubulin (unknown origin) assessed inhibition rate at 5 uM relative to control; type: protein-complex assay
MCF7 = assay: Cytotoxicity against human MCF7 cells assessed as inhibition of cell growth; type: functional, cell-based
[1] = Toxicity in brine shrimp assessed as lethal dose; settings: artemia salina
L1210 = assay: Cytotoxicity against mouse L1210 cells assessed as inhibition of cell growth; type: functional, cell-based
Nitzschia amabilis = assay: Growth inhibition of marine diatom assessed as inhibition; type: functional, organism-based
HCT-116 = assay: Cytotoxicity against human HCT-116 cells assessed as inhibition of cell growth; type: functional, cell-based
[2] = Toxicity in mouse assessed as lethal dose; settings: in vivo
PANC-1 = assay: Cytotoxicity against human PANC-1 cells; type: functional, cell-based
[3] = Toxicity in goldfish assessed as survival rate at 5 ppm measured after 90 mins relative to control; settings: carassius auratus
NCI-H460 = assay: Cytotoxicity against human NCI-H460 cells; type: functional, cell-based
N2a = assay: Cytotoxicity against mouse Neuro2a cells assessed as inhibition of cell growth; type: functional, cell-based; settings: Mus musculus, N2a
[4] = Toxicity in brine shrimp assessed as lethality at 10 ppm relative to control; settings: artemia salina, read-out: Activity
[5] = Toxicity in goldfish assessed as lethality at 5 ppm relative to control; settings: carassius auratus, read-out: Activity
CA46 = assay: Cytotoxicity against human CA46 cells assessed as inhibition of cell growth; type: functional, cell-based
Tubulin = assay: Inhibition of tubulin polymerization (unknown origin) by tubulin polymerization assay; type: protein-complex assay, Homo sapiens
[6] = Antiproliferative activity against CHO-AUXB1 cells; type: toxicity, cell-based; settings: Chinese hamster (Cricetulus griseus)
HeLa [7] = assay: Cytotoxicity against human HeLa cells assessed as inhibition of cell growth incubated for 72 hrs by MTT assay; type: functional, cell-based
Neuro2a = assay: Inhibition of sodium channel in mouse Neuro2a cells; type: cell-based
[8] = Toxicity in goldfish assessed as lethal dose; settings: carassius auratus
Echinoidea = assay: Antiproliferative activity against sea urchin fertilized embryo assessed as inhibition of cell division; type: functional, organism-based
[9] = Toxicity in brine shrimp; settings: artemia salina; read-out: ED50 (the source's name)
KB = assay: Cytotoxicity against human KB cells; type: functional, cell-based
HeLa [10] = assay: Cytotoxicity against human HeLa cells assessed as inhibition of cell growth incubated for 48 hrs by WST-8 colorimetric assay; type: functional, cell-based
LoVo = assay: Cytotoxicity against human LoVo cells; type: functional, cell-based
Homo sapiens [11] = organism: Homo sapiens; assay: Activation of Voltage-gated sodium channel (unknown origin) at 3 ug/ml incubated for 18 hrs by cell-based bioassay relative to control; settings: dose 3.0 µg/ml
Homo sapiens [12] = organism: Homo sapiens; assay: Inhibition of Voltage-gated sodium channel (unknown origin) at 3 ug/ml incubated for 18 hrs by cell-based bioassay relative to control; settings: dose 3.0 µg/ml
U-251 = assay: Cytotoxicity against human U-251MG cells; type: functional, cell-based
A549 = assay: Cytotoxicity against human A549 cells assessed as cell growth inhibition; type: functional, cell-based
Pseudomonas aeruginosa = assay: Antibacterial activity against Pseudomonas aeruginosa PA01 assessed as inhibition of swarming at 100 ppm relative to control; type: functional
HCT-8 = assay: Cytotoxicity against human HCT-8 cells assessed as cell growth inhibition; type: functional, cell-based
P388 = assay: Cytotoxicity against mouse P388 cells assessed as inhibition of cell growth; type: functional, cell-based
SK-OV-3 = assay: Cytotoxicity against human SK-OV-3 cells assessed as cell growth inhibition; type: functional, cell-based
Plasmodium falciparum = assay: Antimalarial activity against Plasmodium falciparum assessed as growth inhibition; type: functional, organism-based
PC-3 = assay: Cytotoxicity against human PC-3 cells assessed as cell growth inhibition; type: functional, cell-based
[13] = read-out: LD50 (the source's name)

## C=CCC(CC/C=C/C=C/CC/C=C\C1CSC([C@@H]2C[C@@H]2C)=N1)OC (stereo partly specified)
Tubulin (Homo sapiens)
  inhibition: 53%
MCF7
  IC50: 340 nM
[1]; [13]
  LC50: 15600 nM

## CO[C@@H](CC[C@H](C)[C@@H](O)[C@@H](C)/C=C/C1=C(C(=O)O[C@@H]2CC(=O)O[C@@H]2C)C(=O)[C@H](C)CC1(C)C)c1cc(O)ccc1Br
L1210
  IC50: 4.6 µg/mL
Nitzschia amabilis
  IC50: 1.2 µg/mL (≈ 1.89 µM)

## CC[C@H](C)[C@@H]1NC(=O)CNC(=O)c2csc(n2)[C@H](C(C)(C)O)OC(=O)C(C)(C)[C@H](CCCC(C)(Cl)Cl)OC(=O)c2csc1n2 [LYNGBYABELLIN A]
HCT-116
  IC50: 52.1 nM
[2]
  LD: 2.4 mg/kg

## CCCC[C@@H](C)C[C@@H](C)C(=O)N(C)[C@@H](Cc1ccc(OC)cc1)C(=O)N[C@H](C(=O)N(C)[C@H](C(=O)N1C[C@@H](O)C[C@H]1C(=O)N1C(=O)C=C[C@@H]1C)C(C)C)[C@@H](C)OC(C)=O
PANC-1
  IC50: 0.32 nM

## C#CCCC/C(=C/Cl)CCC(C)/C=C/CCC(=O)NCC/C(=C\C(=O)N1C(=O)C=C[C@@H]1C)OC (stereo partly specified)
[3]
  survival at 1.5 h, 5 ppm: 0%
NCI-H460
  IC50: 15000 nM
N2a
  IC50: 15000 nM

## C=CCCC/C(=C/Cl)CCC(C)/C=C/CCC(=O)NCC/C(=C\C(=O)N1C(=O)C=C[C@@H]1C)OC (stereo partly specified)
[4]
  mortality at 10 ppm: 25%
[5]
  mortality at 5 ppm: 100%
NCI-H460
  IC50: 15000 nM
N2a
  IC50: 15000 nM

## C=CCC(CC/C(C)=C/C=C/CC/C=C\C1CSC([C@@H]2C[C@@H]2C)=N1)OC (stereo partly specified)
Tubulin (Homo sapiens)
  inhibition: 94%
CA46
  IC50: 200 nM
L1210
  IC50: 9 nM
Tubulin
  IC50: 690 nM
[1]; read-out: LC50
  LC50: 0.003 µg/mL
[6]
  IC50: 0.0068 µg/mL (≈ 0.0182 µM)

## CC/C(=C\C(=O)N(C)/C=C\CCC[C@H]1CC[C@H](C)C[C@@H](C)C(=O)N(C)[C@@H](CC(C)C)C(=O)O1)OC
HeLa [7]
  IC50: 2500 nM

## C=C[C@@H]1CSC(C[C@@H](C)[C@@H](C)C[C@H](C)CCN(C)C(=O)[C@H](C)CC)=N1
Neuro2a
  INH: 1 nM
[1]; read-out: LC50
  LC50: 170 nM
[8]
  LC50: 700 nM
Echinoidea
  IC50: 25 nM

## O=CNC(CCCC#CC=C(Cl)Cl)CCC/C=C/CC(Cl)Cl (stereo unspecified)
[1]; [13]
  LC50: 1.7 µg/mL
[9]
  LC50: 1 µg/mL (≈ 2.6 µM)

## CCCCC(C)C1C[C@@H](O)CCC[C@H](O)C[C@@H](O)C[C@@H](O)CCCC(O)CCCC(O)CCCC(O)CCCC(O)CCCC(O)CC(C)CC(=O)O1 (stereo partly specified)
HCT-116
  IC50: 9900 nM

## CC[C@@H](C)[C@H]1C(=O)N2CCC[C@H]2C(=O)O[C@H](C(C)(C)C)C[C@@H](C)C[C@H](O)[C@H](C)C2=N[C@@H](/C=C(\C)C(=O)N[C@@H](Cc3ccc(OC)cc3)C(=O)N(C)[C@@H](C)C(=O)N1C)CS2
KB
  IC50: 0.36 nM
HeLa [10]
  IC50: 190 nM
LoVo
  IC50: 0.36 nM
N2a
  IC50: 1000 nM

## O=CNC(CCCC#C/C=C\Cl)CCC/C=C\C=C(Cl)Cl (stereo unspecified)
[1]; [13]
  LC50: 1.7 µg/mL
[9]
  LC50: 1 µg/mL (≈ 2.87 µM)

## CC[C@H](C)[C@H]1C(=O)N2CCC[C@H]2C(=O)O[C@H](C(C)(C)C)C[C@@H](C)C/C=C/C2=N[C@@H](CCC(=O)N[C@@H](Cc3ccc(OC)cc3)C(=O)N(C)[C@@H](C)C(=O)N1C)CS2 [APRATOXIN E]
HCT-116
  IC50: 100 nM

## CCCCCCCC[C@@H](C/C=C/CCC(=O)NC/C(=C/Cl)C1=CCC[C@@H](OC(C)=O)C1=O)OC
Homo sapiens [11]
  Activity: 19%
NCI-H460
  IC50: 4000 nM
N2a
  IC50: 4000 nM
Homo sapiens [12]
  inhibition: 28%

## C=C1CC(=O)N[C@@H](C)C(=O)N(C)[C@@H](C(C)C)C(=O)NCC(=O)O[C@@H](/C(C)=C/C(C)=C/C(C)(C)C)[C@@H]1C [ANTILLATOXIN]
[8]
  LC50: 100 nM

## O=CNC(CCCC#CC=C(Cl)Cl)CCCCCCC(Cl)Cl (stereo unspecified)
[1]; [13]
  LC50: 1.7 µg/mL
[9]
  LC50: 1 µg/mL (≈ 2.58 µM)

## CCCC[C@@H](C)C[C@@H](C)C(=O)N(C)[C@@H](Cc1ccc(OC)cc1)C(=O)N[C@H](C(=O)N(C)[C@H](C(=O)N1CCC[C@H]1C(=O)N1C(=O)C=C[C@@H]1C)C(C)C)[C@@H](C)OC(C)=O
U-251
  IC50: 36.8 nM

## CC[C@@H](C)[C@@H]1NC(=O)CN(C)C(=O)[C@@H](Cc2ccccc2)N(C)C(=O)[C@H](C)NC(=O)[C@@H]([C@@H](C)CC)OC(=O)/C(C)=C/C[C@H](O)[C@@H](C)C[C@H]([C@@H](C)CC)OC(=O)[C@H](C)N(C)C1=O
A549
  IC50: 2.1 nM
Pseudomonas aeruginosa
  inhibition at 100 µg/mL: 49%
HCT-8
  IC50: 2.1 nM
P388
  IC50: 2.1 nM
SK-OV-3
  IC50: 2.1 nM
Plasmodium falciparum
  IC50: 290 nM
PC-3
  IC50: 2.1 nM
